Source: ChEMBL document CHEMBL3885861, “Open TG-GATES”

Species on record: Rattus norvegicus
Test: Open TG-GATES - Regimen: Daily Repeat
Type: toxicity, organism-based, Sprague-Dawley
Parameters: regimen Daily Repeat, gender Male, age 6 weeks
Details: in vivo, po, 0 mg/kg, route gavage, dose level Control; for Bas / Eos / Hb / Ht / Lym / MCH / MCHC / MCV / Mono / Neu / Plat / RBC / Ret / WBC: tissue Blood; for KIDNEY_L / KIDNEY_R / KIDNEY_TOTAL: tissue Kidney; for LIVER: tissue Liver; for A/G / ALP / ALT / AST / BUN / CRE / Ca / Cl / DBIL / GLC / IP / K / LDH / Na / PL / RALB / TBIL / TC / TG / TP / gamma-GTP: tissue Plasma

CC(N)=O [ACETAMIDE]
TERMINAL_BW (72 h, time 3 day): 236.7 g | Bas (72 h, time 3 day): 0% | Eos (72 h, time 3 day): 1% | Hb (72 h, time 3 day): 13.1 g/dL | Ht (72 h, time 3 day): 40.5% | Lym (72 h, time 3 day): 71.4% | MCH (72 h, time 3 day): 20 pg | MCHC (72 h, time 3 day): 32.4% | MCV (72 h, time 3 day): 61.6 fL | Mono (72 h, time 3 day): 3.6% | Neu (72 h, time 3 day): 23% | Plat (72 h, time 3 day): 126.3 x10_4/uL | RBC (72 h, time 3 day): 658.2 x10_4/ul | Ret (72 h, time 3 day): 7.1% | WBC (72 h, time 3 day): 126.7 x10_2/uL | KIDNEY_L (72 h, time 3 day): 1 g | KIDNEY_R (72 h, time 3 day): 1 g | KIDNEY_TOTAL (72 h, time 3 day): 2 g | LIVER (72 h, time 3 day): 11.1 g | A/G (72 h, time 3 day): 1 | ALP (72 h, time 3 day): 1741.8 IU/L | ALT (72 h, time 3 day): 39.8 IU/L | AST (72 h, time 3 day): 71.6 IU/L | BUN (72 h, time 3 day): 15.2 mg/dL | CRE (72 h, time 3 day): 0.1 mg/dL | Ca (72 h, time 3 day): 10.7 mg/dL | Cl (72 h, time 3 day): 105.6 meq/L | DBIL (72 h, time 3 day): 0.004 mg/dL | GLC (72 h, time 3 day): 196 mg/dL | IP (72 h, time 3 day): 6.7 mg/dL | K (72 h, time 3 day): 4.4 meq/L | LDH (72 h, time 3 day): 180.4 IU/L | Na (72 h, time 3 day): 140.9 meq/L | PL (72 h, time 3 day): 162.6 mg/dL | RALB (72 h, time 3 day): 2.8 g/dL | TBIL (72 h, time 3 day): 0.002 mg/dL | TC (72 h, time 3 day): 85.2 mg/dL | TG (72 h, time 3 day): 108.8 mg/dL | TP (72 h, time 3 day): 5.6 g/dL | gamma-GTP (72 h, time 3 day): 0.8 IU/L | TERMINAL_BW ([…], time 7 day): 276.9 g | TERMINAL_BW ([…], time 14 day): 335.4 g | TERMINAL_BW ([…], time 28 day): 415.6 g | Bas ([…], time 7 day): 0% | Eos ([…], time 7 day): 1% | Hb ([…], time 7 day): 12.7 g/dL | Ht ([…], time 7 day): 38.9% | Lym ([…], time 7 day): 75.2% | MCH ([…], time 7 day): 19.9 pg | MCHC ([…], time 7 day): 32.7% | MCV ([…], time 7 day): 60.8 fL | Mono ([…], time 7 day): 3.2% | Neu ([…], time 7 day): 19.8% | Plat ([…], time 7 day): 131.8 x10_4/uL | RBC ([…], time 7 day): 640.2 x10_4/ul | Ret ([…], time 7 day): 6.7% | WBC ([…], time 7 day): 130.3 x10_2/uL | Bas ([…], time 14 day): 0% | Eos ([…], time 14 day): 1% | Hb ([…], time 14 day): 13.4 g/dL | Ht ([…], time 14 day): 40.3% | Lym ([…], time 14 day): 79.8% | MCH ([…], time 14 day): 19.6 pg | MCHC ([…], time 14 day): 33.2% | MCV ([…], time 14 day): 58.9 fL | Mono ([…], time 14 day): 3% | Neu ([…], time 14 day): 15.2% | Plat ([…], time 14 day): 119.7 x10_4/uL | RBC ([…], time 14 day): 685.6 x10_4/ul | Ret ([…], time 14 day): 5.2% | WBC ([…], time 14 day): 124.3 x10_2/uL | Bas ([…], time 28 day): 0% | Eos ([…], time 28 day): 1% | Hb ([…], time 28 day): 13.5 g/dL | Ht ([…], time 28 day): 41.1% | Lym ([…], time 28 day): 82.2% | MCH ([…], time 28 day): 18.5 pg | MCHC ([…], time 28 day): 32.8% | MCV ([…], time 28 day): 56.3 fL | Mono ([…], time 28 day): 2.2% | Neu ([…], time 28 day): 14.2% | Plat ([…], time 28 day): 99.3 x10_4/uL | RBC ([…], time 28 day): 729.2 x10_4/ul | Ret ([…], time 28 day): 4.1% | WBC ([…], time 28 day): 118.1 x10_2/uL | KIDNEY_L ([…], time 7 day): 1.1 g | KIDNEY_R ([…], time 7 day): 1.2 g | KIDNEY_TOTAL ([…], time 7 day): 2.3 g | KIDNEY_L ([…], time 14 day): 1.3 g | KIDNEY_R ([…], time 14 day): 1.3 g | KIDNEY_TOTAL ([…], time 14 day): 2.6 g | KIDNEY_L ([…], time 28 day): 1.4 g | KIDNEY_R ([…], time 28 day): 1.4 g | KIDNEY_TOTAL ([…], time 28 day): 2.8 g | LIVER ([…], time 7 day): 12.8 g | LIVER ([…], time 14 day): 14.7 g | LIVER ([…], time 28 day): 16 g | A/G ([…], time 7 day): 0.9 | ALP ([…], time 7 day): 1570 IU/L | ALT ([…], time 7 day): 38.2 IU/L | AST ([…], time 7 day): 64.2 IU/L | BUN ([…], time 7 day): 16.1 mg/dL | CRE ([…], time 7 day): 0.2 mg/dL | Ca ([…], time 7 day): 10.5 mg/dL | Cl ([…], time 7 day): 103.4 meq/L | DBIL ([…], time 7 day): 0 mg/dL | GLC ([…], time 7 day): 195.2 mg/dL | IP ([…], time 7 day): 6.6 mg/dL | K ([…], time 7 day): 4.7 meq/L | LDH ([…], time 7 day): 164.6 IU/L | Na ([…], time 7 day): 140.6 meq/L | PL ([…], time 7 day): 148.6 mg/dL | RALB ([…], time 7 day): 2.8 g/dL | TBIL ([…], time 7 day): 0 mg/dL | TC ([…], time 7 day): 72.6 mg/dL | TG ([…], time 7 day): 135.5 mg/dL | TP ([…], time 7 day): 5.7 g/dL | gamma-GTP ([…], time 7 day): 0.7 IU/L | A/G ([…], time 14 day): 0.9 | ALP ([…], time 14 day): 1394.4 IU/L | ALT ([…], time 14 day): 33.2 IU/L | AST ([…], time 14 day): 64.6 IU/L | BUN ([…], time 14 day): 17.9 mg/dL | CRE ([…], time 14 day): 0.2 mg/dL | Ca ([…], time 14 day): 10.4 mg/dL | Cl ([…], time 14 day): 103.5 meq/L | DBIL ([…], time 14 day): 0 mg/dL | GLC ([…], time 14 day): 196.6 mg/dL | IP ([…], time 14 day): 6.6 mg/dL | K ([…], time 14 day): 4.2 meq/L | LDH ([…], time 14 day): 170.6 IU/L | Na ([…], time 14 day): 141.6 meq/L | PL ([…], time 14 day): 156 mg/dL | RALB ([…], time 14 day): 2.7 g/dL | TBIL ([…], time 14 day): 0 mg/dL | TC ([…], time 14 day): 72 mg/dL | TG ([…], time 14 day): 191.9 mg/dL | TP ([…], time 14 day): 5.8 g/dL | gamma-GTP ([…], time 14 day): 0.8 IU/L | A/G ([…], time 28 day): 0.8 | ALP ([…], time 28 day): 983.4 IU/L | ALT ([…], time 28 day): 34.2 IU/L | AST ([…], time 28 day): 64.6 IU/L | BUN ([…], time 28 day): 16.3 mg/dL | CRE ([…], time 28 day): 0.2 mg/dL | Ca ([…], time 28 day): 10.3 mg/dL | Cl ([…], time 28 day): 103.9 meq/L | DBIL ([…], time 28 day): 0.004 mg/dL | GLC ([…], time 28 day): 204.8 mg/dL | IP ([…], time 28 day): 6.3 mg/dL | K ([…], time 28 day): 4.1 meq/L | LDH ([…], time 28 day): 179.6 IU/L | Na ([…], time 28 day): 142.3 meq/L | PL ([…], time 28 day): 133.2 mg/dL | RALB ([…], time 28 day): 2.7 g/dL | TBIL ([…], time 28 day): 0.002 mg/dL | TC ([…], time 28 day): 60.2 mg/dL | TG ([…], time 28 day): 133.7 mg/dL | TP ([…], time 28 day): 6 g/dL | gamma-GTP ([…], time 28 day): 0.9 IU/L
